Assay results reported in patent US9309242B2, “Substituted pyrido[2,3-b]pyrazines as FGFR kinase inhibitors” (priority 2011, dated 2016).
Counter-ions that a name gives are not always drawn.

In the case of `COc1cc(/N=c2\ccc3ncc(-c4cnn(C)c4)nc3n2CC2CCCCO2)cc(OC)c1` (stereo not drawn), the melting point is reported as 210 °C.
In the case of `COc1cc(OC)c(F)c(N(Cc2ncn(C3CNC3)n2)c2ccc3ncc(-c4cnn(C)c4)nc3n2)c1`, the melting point is reported as 126 °C.
Molecule `CNCCN(c1ccc2ncc(-c3cn[nH]c3)nc2n1)c1c(F)c(OC)cc(OC)c1F` (as salt: HCl) (hydrate or solvate) [Compound 106] has a melting point of 250 °C.
`COc1cc(/N=c2\ccc3ncc(-c4cnn(C)c4)nc3n2Cc2cc[nH]n2)c(F)c(OC)c1` (as salt: HCl) (hydrate or solvate) [Compound 115] gave a melting point of 130 °C.
In the case of `COc1cc(OC)c(F)c(N(Cc2ncc[nH]2)c2ccc3ncc(-c4cnn(C)c4)nc3n2)c1` (as salt: fumarate) [Compound 23], the melting point is reported as 186 °C.
`COc1cc(OC)cc(N(Cc2ncc[nH]2)c2ccc3ncc(-c4cnn(C)c4)nc3n2)c1` (as salt: fumarate) [Compound 24] showed a melting point of 222 °C.
With `COc1cc(OC)c(F)c(N(Cc2ncc[nH]2)c2ccc3ncc(-c4cnn(C)c4)nc3n2)c1` (as salt: hydrochloric acid salt) [Compound 23] the melting point was 216 °C.
For `COc1cc(OC)cc(N(Cc2ncc[nH]2)c2ccc3ncc(-c4cnn(C)c4)nc3n2)c1` (as salt: hydrochloride) (hydrate or solvate) [Compound 24], the melting point was greater than 260 °C.
With `COc1cc(OC)cc(N(CCN2CCOCC2)c2ccc3ncc(-c4cnn(C)c4)nc3n2)c1` (as salt: hydrochloride) (hydrate or solvate) [Compound 146] the melting point was 143 °C.
With `COc1cc(OC)c(F)c(N(Cc2ncc[nH]2)c2ccc3ncc(-c4cnn(C)c4)nc3n2)c1` (as salt: lactate) [Compound 23] the melting point was 118 °C.
In the case of `COc1cc(OC)c(F)c(N(Cc2ncc[nH]2)c2ccc3ncc(-c4cnn(C)c4)nc3n2)c1` (as salt: phosphate) [Compound 23], the melting point is reported as 175 °C.
Work on `COc1cc(OC)cc(N(Cc2ncc[nH]2)c2ccc3ncc(-c4cnn(C)c4)nc3n2)c1` (as salt: phosphate) [Compound 24] yielded a melting point of 253 °C.
